Laboratory results reported in ChEMBL document CHEMBL5653615 (J Biol Chem, 2013).
Activity calls are given as the source filed them. The rule behind the calls is not given here.

Columns and labels:
[1] = biological target: Serine/threonine-protein kinase B-raf (Homo sapiens) (UniProt P15056); assay: Inhibition of human BRAF at 1.82 nM by HotSpot assay relative to control
[2] = biological target: Protein-tyrosine kinase 6 (Homo sapiens) (UniProt Q13882); assay: Inhibition of human BRK at 1.82 nM by HotSpot assay relative to control
[3] = biological target: Tyrosine-protein kinase CSK (Homo sapiens) (UniProt P41240); assay: Inhibition of human CSK at 1.82 nM by HotSpot assay relative to control
Chain of Tyrosine-protein kinase CSK (Homo sapiens) (P41240 2-450 limits assumed): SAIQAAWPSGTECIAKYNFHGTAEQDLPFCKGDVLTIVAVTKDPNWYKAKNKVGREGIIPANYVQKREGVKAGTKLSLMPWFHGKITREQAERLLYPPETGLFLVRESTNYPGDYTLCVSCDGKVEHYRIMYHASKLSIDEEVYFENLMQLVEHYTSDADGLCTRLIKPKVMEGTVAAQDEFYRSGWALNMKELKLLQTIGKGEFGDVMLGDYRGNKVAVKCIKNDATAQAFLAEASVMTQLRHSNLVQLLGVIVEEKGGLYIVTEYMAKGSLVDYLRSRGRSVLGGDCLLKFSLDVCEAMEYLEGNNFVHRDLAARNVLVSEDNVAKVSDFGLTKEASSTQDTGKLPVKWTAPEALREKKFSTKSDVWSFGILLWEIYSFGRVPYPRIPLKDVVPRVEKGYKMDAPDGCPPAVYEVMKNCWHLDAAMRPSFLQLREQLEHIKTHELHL

[4] = biological target: Focal adhesion kinase 1 (Homo sapiens) (UniProt Q05397); assay: Inhibition of human FAK at 1.82 nM by HotSpot assay relative to control
Chain of Focal adhesion kinase 1 (Homo sapiens) (Q05397 2-1052 limits assumed): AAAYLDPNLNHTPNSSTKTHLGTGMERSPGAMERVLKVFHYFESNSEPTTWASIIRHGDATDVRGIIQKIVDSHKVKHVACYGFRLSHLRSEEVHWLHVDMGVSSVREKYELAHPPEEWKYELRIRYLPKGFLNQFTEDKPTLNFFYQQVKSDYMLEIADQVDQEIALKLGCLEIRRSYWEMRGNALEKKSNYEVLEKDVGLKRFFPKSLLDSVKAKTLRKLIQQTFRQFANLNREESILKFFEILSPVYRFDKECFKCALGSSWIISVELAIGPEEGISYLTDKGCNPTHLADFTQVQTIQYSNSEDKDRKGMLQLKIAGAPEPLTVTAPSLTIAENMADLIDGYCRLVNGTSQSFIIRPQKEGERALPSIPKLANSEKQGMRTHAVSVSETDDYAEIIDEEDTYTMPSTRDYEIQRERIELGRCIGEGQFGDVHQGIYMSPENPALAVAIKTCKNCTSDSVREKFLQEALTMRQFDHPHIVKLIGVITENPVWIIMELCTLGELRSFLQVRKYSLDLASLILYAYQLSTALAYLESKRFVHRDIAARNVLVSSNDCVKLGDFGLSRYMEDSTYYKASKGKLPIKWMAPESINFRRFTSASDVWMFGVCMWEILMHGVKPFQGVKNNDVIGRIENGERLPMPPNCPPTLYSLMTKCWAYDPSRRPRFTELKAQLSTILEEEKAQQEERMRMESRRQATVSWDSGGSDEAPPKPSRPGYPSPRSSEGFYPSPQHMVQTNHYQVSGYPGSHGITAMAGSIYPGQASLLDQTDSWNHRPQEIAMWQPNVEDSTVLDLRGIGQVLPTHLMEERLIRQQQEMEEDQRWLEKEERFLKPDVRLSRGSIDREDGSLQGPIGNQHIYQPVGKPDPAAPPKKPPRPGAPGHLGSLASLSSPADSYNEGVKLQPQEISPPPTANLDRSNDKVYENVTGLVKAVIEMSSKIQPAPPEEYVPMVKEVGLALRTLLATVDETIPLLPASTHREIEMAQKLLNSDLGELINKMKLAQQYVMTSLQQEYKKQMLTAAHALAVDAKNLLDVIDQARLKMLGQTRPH

[5] = biological target: Tyrosine-protein kinase JAK1 (Homo sapiens) (UniProt P23458); assay: Inhibition of human JAK1 at 1.82 nM by HotSpot assay relative to control
Chain of Tyrosine-protein kinase JAK1 (Homo sapiens) (P23458 whole entry): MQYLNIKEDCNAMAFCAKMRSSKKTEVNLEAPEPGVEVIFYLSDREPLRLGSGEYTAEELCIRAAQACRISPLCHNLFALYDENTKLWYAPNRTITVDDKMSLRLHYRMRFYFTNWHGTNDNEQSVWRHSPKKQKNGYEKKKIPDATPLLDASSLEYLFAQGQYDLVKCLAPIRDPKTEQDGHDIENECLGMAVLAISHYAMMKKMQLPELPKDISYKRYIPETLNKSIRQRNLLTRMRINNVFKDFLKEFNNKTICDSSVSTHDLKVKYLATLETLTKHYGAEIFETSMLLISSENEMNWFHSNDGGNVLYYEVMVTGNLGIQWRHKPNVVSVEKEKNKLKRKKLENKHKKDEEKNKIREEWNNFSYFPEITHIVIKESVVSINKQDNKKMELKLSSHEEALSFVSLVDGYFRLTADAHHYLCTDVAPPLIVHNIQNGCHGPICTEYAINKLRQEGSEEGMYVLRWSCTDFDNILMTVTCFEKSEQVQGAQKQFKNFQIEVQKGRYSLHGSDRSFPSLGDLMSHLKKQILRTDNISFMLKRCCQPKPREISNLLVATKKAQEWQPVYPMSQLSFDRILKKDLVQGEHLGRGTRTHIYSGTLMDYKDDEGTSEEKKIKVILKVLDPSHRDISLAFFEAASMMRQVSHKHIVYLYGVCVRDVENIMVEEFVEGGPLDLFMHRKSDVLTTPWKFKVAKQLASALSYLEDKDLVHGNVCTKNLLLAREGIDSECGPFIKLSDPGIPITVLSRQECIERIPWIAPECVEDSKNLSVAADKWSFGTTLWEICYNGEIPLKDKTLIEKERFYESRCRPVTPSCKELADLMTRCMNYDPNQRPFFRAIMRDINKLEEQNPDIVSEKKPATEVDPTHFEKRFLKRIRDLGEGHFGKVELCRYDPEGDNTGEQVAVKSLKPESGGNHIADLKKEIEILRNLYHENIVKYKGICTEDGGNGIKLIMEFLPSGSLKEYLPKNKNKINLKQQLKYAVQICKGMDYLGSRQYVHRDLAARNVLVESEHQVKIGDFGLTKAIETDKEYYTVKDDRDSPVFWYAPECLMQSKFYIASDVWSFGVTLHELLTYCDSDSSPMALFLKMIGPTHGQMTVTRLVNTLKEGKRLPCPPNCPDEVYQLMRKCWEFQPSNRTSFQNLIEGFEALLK

[6] = biological target: T1, Tyrosine-protein kinase JAK3 (Homo sapiens) (UniProt P52333); assay: Inhibition of human JAK3 at 1.82 nM by HotSpot assay relative to control
T1 sequence (whole entry): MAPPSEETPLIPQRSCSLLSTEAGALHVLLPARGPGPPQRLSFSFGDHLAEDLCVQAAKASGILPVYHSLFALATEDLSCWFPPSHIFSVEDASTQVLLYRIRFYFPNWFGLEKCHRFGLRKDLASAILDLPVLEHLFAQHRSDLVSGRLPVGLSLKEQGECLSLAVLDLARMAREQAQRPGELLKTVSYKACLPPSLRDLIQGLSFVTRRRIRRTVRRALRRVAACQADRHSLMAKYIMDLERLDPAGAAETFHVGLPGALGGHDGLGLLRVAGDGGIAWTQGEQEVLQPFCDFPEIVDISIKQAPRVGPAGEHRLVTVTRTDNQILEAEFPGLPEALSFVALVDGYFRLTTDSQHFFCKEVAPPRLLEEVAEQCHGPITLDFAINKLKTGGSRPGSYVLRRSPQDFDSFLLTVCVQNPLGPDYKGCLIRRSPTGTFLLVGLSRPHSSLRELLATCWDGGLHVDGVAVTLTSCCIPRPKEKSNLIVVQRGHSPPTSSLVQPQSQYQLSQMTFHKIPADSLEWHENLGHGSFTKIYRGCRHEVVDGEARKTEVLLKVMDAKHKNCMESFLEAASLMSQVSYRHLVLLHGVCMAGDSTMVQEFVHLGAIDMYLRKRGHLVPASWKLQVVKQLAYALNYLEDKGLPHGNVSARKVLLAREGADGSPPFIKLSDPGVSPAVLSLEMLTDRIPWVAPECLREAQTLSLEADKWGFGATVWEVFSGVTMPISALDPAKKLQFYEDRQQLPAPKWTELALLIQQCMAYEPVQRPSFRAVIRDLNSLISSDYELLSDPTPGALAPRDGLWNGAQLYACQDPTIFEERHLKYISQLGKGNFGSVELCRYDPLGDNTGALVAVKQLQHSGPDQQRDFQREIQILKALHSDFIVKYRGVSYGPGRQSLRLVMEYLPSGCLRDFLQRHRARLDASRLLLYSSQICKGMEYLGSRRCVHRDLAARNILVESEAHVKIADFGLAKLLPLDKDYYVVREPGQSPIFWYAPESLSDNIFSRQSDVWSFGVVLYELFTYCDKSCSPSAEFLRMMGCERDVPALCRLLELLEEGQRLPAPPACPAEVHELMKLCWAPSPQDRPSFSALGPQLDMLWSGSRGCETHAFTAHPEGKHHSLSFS

[7] = biological target: MAP kinase-activated protein kinase 3 (Homo sapiens) (UniProt Q16644); assay: Inhibition of human MAPKAPK3 at 1.82 nM by HotSpot assay relative to control
Chain of MAP kinase-activated protein kinase 3 (Homo sapiens) (Q16644 whole entry, looked up): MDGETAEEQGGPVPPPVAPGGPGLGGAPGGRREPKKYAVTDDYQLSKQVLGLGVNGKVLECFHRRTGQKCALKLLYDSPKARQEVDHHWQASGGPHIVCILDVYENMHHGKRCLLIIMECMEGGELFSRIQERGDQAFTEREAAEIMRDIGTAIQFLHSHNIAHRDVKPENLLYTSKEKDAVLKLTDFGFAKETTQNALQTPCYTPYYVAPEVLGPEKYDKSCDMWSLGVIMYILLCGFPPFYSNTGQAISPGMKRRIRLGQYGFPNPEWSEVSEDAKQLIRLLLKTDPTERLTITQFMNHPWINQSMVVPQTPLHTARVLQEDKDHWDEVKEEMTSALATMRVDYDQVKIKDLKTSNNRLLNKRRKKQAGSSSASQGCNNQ

[8] = biological target: Activated CDC42 kinase 1 (Homo sapiens) (UniProt Q07912); assay: Inhibition of human ACK1 at 18.6 nM by HotSpot assay relative to control
[9] = biological target: Activin receptor type-1-like (Homo sapiens) (UniProt P37023); assay: Inhibition of human ALK1 at 18.6 nM by HotSpot assay relative to control
Chain of Activin receptor type-1-like (Homo sapiens) (P37023 whole entry): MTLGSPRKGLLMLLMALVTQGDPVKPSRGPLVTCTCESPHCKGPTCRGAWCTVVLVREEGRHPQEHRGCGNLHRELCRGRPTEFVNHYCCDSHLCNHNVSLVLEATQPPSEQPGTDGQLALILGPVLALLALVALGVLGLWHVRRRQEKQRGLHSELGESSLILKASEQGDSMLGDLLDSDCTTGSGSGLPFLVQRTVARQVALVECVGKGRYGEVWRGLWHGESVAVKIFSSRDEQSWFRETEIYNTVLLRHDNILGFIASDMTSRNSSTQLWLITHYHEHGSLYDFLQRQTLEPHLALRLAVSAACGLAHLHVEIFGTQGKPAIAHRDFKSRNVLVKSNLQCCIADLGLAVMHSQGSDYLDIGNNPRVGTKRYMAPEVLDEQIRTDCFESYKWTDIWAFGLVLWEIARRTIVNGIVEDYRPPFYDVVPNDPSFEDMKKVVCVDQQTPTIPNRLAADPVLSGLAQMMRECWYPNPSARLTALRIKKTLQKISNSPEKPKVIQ

[10] = biological target: Cyclin-dependent kinase 5/CDK5 activator 1 (Homo sapiens) (UniProt Q00535+Q15078); assay: Inhibition of human CDK5/p35 at 18.6 nM by HotSpot assay relative to control; format: protein-complex assay
[11] = biological target: CDK9/cyclin T1 (Homo sapiens) (UniProt O60563+P50750); assay: Inhibition of human CDK9/cyclin T1 at 18.6 nM by HotSpot assay relative to control; format: protein-complex assay
[12] = biological target: T2, Tyrosine-protein kinase ITK/TSK (Homo sapiens) (UniProt Q08881); assay: Inhibition of human ITK at 18.6 nM by HotSpot assay relative to control
T2 sequence (whole entry): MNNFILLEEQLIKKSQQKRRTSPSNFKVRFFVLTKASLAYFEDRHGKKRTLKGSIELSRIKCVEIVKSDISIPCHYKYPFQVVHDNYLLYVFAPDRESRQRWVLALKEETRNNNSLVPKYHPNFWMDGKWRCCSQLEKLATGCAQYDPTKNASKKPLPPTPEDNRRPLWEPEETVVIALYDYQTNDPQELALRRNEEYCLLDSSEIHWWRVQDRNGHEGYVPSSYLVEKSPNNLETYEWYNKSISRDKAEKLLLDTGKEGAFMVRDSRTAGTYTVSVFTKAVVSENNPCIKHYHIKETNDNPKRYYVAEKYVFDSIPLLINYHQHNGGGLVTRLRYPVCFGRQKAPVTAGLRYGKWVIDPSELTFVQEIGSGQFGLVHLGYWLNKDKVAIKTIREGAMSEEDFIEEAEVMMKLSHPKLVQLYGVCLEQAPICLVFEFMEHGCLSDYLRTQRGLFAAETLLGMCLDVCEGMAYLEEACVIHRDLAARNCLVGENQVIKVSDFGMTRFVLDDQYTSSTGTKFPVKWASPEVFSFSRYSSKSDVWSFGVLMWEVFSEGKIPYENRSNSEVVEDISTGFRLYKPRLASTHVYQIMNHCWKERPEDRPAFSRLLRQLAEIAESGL

[13] = biological target: Ribosomal protein S6 kinase alpha-4 (Homo sapiens) (UniProt O75676); assay: Inhibition of human RPS6KA4 at 18.6 nM by HotSpot assay relative to control
[14] = biological target: Serine/threonine-protein kinase Nek6 (Homo sapiens) (UniProt Q9HC98); assay: Inhibition of human NEK6 at 18.6 nM by HotSpot assay relative to control
Chain of Serine/threonine-protein kinase Nek6 (Homo sapiens) (Q9HC98 whole entry): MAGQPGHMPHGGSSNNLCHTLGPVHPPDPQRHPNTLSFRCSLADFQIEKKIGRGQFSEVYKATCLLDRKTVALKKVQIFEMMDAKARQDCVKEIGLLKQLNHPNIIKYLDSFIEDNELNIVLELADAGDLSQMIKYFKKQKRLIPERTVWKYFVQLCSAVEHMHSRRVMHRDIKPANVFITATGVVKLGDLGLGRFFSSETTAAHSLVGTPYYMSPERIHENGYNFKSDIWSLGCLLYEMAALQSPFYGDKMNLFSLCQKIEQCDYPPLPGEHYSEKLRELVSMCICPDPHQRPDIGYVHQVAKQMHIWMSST

[15] = biological target: Tyrosine-protein kinase Yes (Homo sapiens) (UniProt P07947); assay: Inhibition of human YES1 at 18.6 nM by HotSpot assay relative to control
[16] = biological target: Platelet-derived growth factor receptor beta (Homo sapiens) (UniProt P09619); assay: Inhibition of human PDGFRb at 500 nM by HotSpot assay relative to control
Chain of Platelet-derived growth factor receptor beta (Homo sapiens) (P09619 whole entry, the tested form may be a part): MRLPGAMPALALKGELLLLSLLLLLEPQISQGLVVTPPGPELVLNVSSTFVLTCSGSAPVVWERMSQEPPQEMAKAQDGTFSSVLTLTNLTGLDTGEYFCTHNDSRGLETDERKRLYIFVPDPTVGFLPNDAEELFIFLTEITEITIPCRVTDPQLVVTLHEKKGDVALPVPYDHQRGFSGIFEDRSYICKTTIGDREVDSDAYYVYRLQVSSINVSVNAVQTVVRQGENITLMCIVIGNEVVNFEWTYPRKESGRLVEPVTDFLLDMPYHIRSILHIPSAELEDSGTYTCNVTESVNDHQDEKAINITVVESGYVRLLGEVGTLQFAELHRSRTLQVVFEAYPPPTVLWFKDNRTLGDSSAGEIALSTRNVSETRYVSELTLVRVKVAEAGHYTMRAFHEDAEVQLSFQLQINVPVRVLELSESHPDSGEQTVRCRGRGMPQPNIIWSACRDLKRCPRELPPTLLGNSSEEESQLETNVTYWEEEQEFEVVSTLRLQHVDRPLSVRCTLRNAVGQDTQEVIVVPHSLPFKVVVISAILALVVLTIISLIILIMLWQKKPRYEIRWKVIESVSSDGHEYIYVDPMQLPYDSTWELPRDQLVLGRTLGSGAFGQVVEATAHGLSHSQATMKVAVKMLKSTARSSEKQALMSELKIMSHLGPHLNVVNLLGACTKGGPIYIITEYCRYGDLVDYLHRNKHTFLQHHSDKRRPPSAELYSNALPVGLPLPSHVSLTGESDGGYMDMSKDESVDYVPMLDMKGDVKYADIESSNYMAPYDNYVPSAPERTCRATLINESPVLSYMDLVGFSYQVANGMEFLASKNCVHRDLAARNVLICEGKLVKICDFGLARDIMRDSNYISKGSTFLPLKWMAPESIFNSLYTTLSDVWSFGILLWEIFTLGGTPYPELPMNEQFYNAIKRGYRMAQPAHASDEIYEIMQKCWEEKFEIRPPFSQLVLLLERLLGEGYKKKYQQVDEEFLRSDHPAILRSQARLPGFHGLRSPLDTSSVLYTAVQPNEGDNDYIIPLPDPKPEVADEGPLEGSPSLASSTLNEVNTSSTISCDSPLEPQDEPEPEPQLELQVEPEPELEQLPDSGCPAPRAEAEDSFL

[17] = Inhibition of di-phosphorylated human Insulin receptor (978 to 1283 residues) C981S mutant kinase domain expressed in baculovirus infected Sf9 cells incubated for 1 hr by [gamma-33P]ATP assay

C[C@@]1(C(=O)Nc2ccc(F)nc2)CCCN1c1nc(Nc2cc(C3CC3)n[nH]2)c2cccn2n1
inhibition [1]: 7.49%
inhibition [2]: 0.2%
inhibition [3]: 3.45%
inhibition [4]: 1.65%
inhibition [5]: -5.65%
inhibition [6]: -1.99%
inhibition [7]: -1.61%

C[C@]1(O)C[C@@H](c2nc(-c3ccc4ccc(-c5ccccc5)nc4c3)c3c(N)nccn32)C1
inhibition [8]: 3%
inhibition [9]: 1.51%
inhibition [10]: -1.84%
inhibition [11]: 2.42%
inhibition [12]: -7.85%
inhibition [13]: -2.53%
inhibition [14]: 14.9%
inhibition [15]: 4.32%

Oc1n[nH]c2nnc(-c3c(-c4ccccc4)nn4ccccc34)cc12
inhibition [16]: -0.46%
inhibition [17]: inactive
